This data set is described as follows: solvent given as SMILES.

On to `CC1=CC(C)=[N+]2C1=C(c1ccc(-c3ccc(OS(=O)(=O)c4ccc([N+](=O)[O-])cc4[N+](=O)[O-])cc3)s1)c1c(C)cc(C)n1[B-]2(F)F`, for which the emission maximum by setting is: (in CO) 523 nm; (in Cc1ccccc1) 530 nm; (in ClCCl) 528 nm.
Take `N[C@@H](Cc1ccc(O)cc1)C(=O)O`: under “in O”, the emission maximum was determined as 300 nm.
Consider `CCCN1/C(=C/C=C(/C=C/C2=[N+](CCC)c3ccccc3C2(C)C)c2ccc3ccccc3n2)C(C)(C)c2ccccc21`, for which the emission maximum reads like this: (in CO) 652 nm; (in CS(C)=O) 664 nm; (in O) 653 nm.
With `Nc1cccc2c1C(=O)c1ccccc1-2`, the emission maximum (in C1CCCCC1) came out at 471 nm, the emission maximum (in CC#N) came to 501 nm, the emission maximum (in CCO) is on record as 521 nm and the emission maximum (in c1ccccc1) is 482 nm.
Molecule `FC(F)(F)c1ccc(-c2ncc3ccccn23)cc1` yielded an emission maximum (in ClC(Cl)Cl) of 459 nm.
Same read-out and setting: under `c1cc2c3cscc3c3ccsc3c2s1` stands 395 nm.
As for `CCCN1c2ccccc2Sc2cc(/C=C\c3cc(=O)oc4cc(NC(=O)OCC)ccc34)ccc21`, the emission maximum (in ClC(Cl)Cl) stood at 635 nm.
Where the note is “in ClCCl”, `O=S1(=O)C2=C(c3ccccc31)C1(C3=C(c4ccccc41)S(=O)(=O)c1ccccc13)c1ccccc12` displayed an emission maximum of 444 nm.
The molecule `CCCCn1c2ccccc2c2ccc3c4cc(-c5ccc(OC)cc5)ccc4n(CCCC)c3c21` came in with an emission maximum (in ClC(Cl)Cl) of 409 nm.
In turn, `Cc1cc(-c2ccc(-c3nc4ccccc4[nH]3)cc2)c(C)cc1-c1ccc(-c2nc3ccccc3[nH]2)cc1` had an emission maximum (in CN(C)C=O) of 401 nm.
In the case of `CC1(C)Nc2ccccc2-c2[nH]c3ccccc3c(=O)c21`, the emission maximum is 483 nm (in C1CCOC1); 507 nm (in CC#N); 521 nm (in CCCCO); 522 nm (in CCCO); 523 nm (in CCO); 491 nm (in CCOC(C)=O). Moreover, the emission maximum reads like this: (in CN(C)C=O) 506 nm; (in CO) 531 nm; (in CS(C)=O) 510 nm; (in Cc1ccccc1) 471 nm; (in ClC(Cl)(Cl)Cl) 460 nm; (in ClCCl) 491 nm. Moreover, the emission maximum by setting is: (in O) 552 nm; (in c1ccccc1) 474 nm.
For `Cc1ccc(/C=C/C(F)(F)F)c(N)c1`, under “in C1CCOC1”, the emission maximum is 423 nm.
Regarding `CN(C)c1ccc(/C=C/c2cc[n+](CCCCC[n+]3ccc(/C=C/c4ccc(N(C)C)cc4)cc3)cc2)cc1`, the emission maximum is, setting by setting: (in CC1COC(=O)O1) 603 nm; (in CC#N) 605 nm; (in CC(C)=O) 604 nm; (in CC(C)O) 593 nm; (in CCO) 598 nm; (in CN(C)C=O) 607 nm. In addition, the emission maximum is, setting by setting: (in CO) 600 nm; (in CS(C)=O) 610 nm; (in ClC(Cl)Cl) 574 nm; (in O) 597 nm; (in c1ccncc1) 596 nm.
For the setting “in CS(C)=O”, `Cn1c2ccc(S(=O)(=O)Cl)cc2c(=O)c2cc(S(=O)(=O)Cl)ccc21` returned an emission maximum of 424 nm.
Take `Cc1cccc(C)c1N1C(c2ccccc2)=Cc2cccc[n+]2[B-]1(F)F`: the emission maximum (in ClCCl) is on record as 453 nm.
On the same count and under the same terms, next, `O=[N+]([O-])c1ccc2c(ccc3[n+]2[B-](F)(F)n2c-3cc3c4ccccc4c4ccccc4c32)c1`: 631 nm.
With `COc1ccc(-c2ccc3c(c2)c2cc(-c4ccc(OC)cc4)ccc2n3-c2ccc(C(=O)c3ccc4sc5ccccc5c4c3)cn2)cc1`, the emission maximum is on record as 479.23 nm (in Cc1ccccc1) and 484 nm (in c1cc(-n2c3ccccc3c3ccccc32)cc(-n2c3ccccc3c3ccccc32)c1).
Take `c12c3c4c5c1c1c6c7c2c2c8c3c3c9c4c4c%10c5c5c1c1c6c6c%11c%12c%13c%14c%15c%16c%17c%14c%14c%18c%13c%11c1c1c5c%10c5c(c%14c%10c%17c%11c%13c%16c%14c%16c%15c%12c%12c%16c(c2c7c%126)c2c8c3c(c%13c%142)c2c9c4c5c%10c%112)c%181`: the emission maximum (in CC1CCCCC1) was determined as 650 nm.
Consider `CC(C)(C)c1ccc2ccc3c(C(C)(C)C)ccc4ccc1c2c43`, for which the emission maximum is 379 nm (in CCCCCC), 379 nm (in CO) and 380 nm (in ClCCl).
Molecule `O=C1c2cc3ccccc3cc2C2=Nc3ccc4ccccc4[n+]3[B-](F)(F)N12` yielded an emission maximum (in ClCCl) of 430 nm.
As for `F[B-]1(F)Oc2ccccc2-c2c3c(c4c([n+]21)CCc1ccccc1-4)CCc1ccccc1-3`, for the setting “in ClCCl”, the emission maximum was 442 nm.
Consider `CC(C)(C)c1ccc2c(c1)c1cc(C(C)(C)C)ccc1n2-c1ccc(N(c2ccc(-c3ccc4c(c3)C(C)(C)c3cc(-c5ccc(N(c6ccc(-n7c8ccc(C(C)(C)C)cc8c8cc(C(C)(C)C)ccc87)cc6)c6ccc(-n7c8ccc(C(C)(C)C)cc8c8cc(C(C)(C)C)ccc87)cc6)cc5)ccc3-4)cc2)c2ccc(-n3c4ccc(C(C)(C)C)cc4c4cc(C(C)(C)C)ccc43)cc2)cc1`, for which the emission maximum (in ClCCl) turned out to be 443 nm.
The molecule `CC(C)(C)c1cc(-c2c3cc(c(-c4cc(C(C)(C)C)cc(C(C)(C)C)c4)c4ccc([nH]4)c(-c4ccc(Br)cc4)c4nc(c(-c5ccc(Br)cc5)c5ccc2[nH]5)C=C4)N=C3)cc(C(C)(C)C)c1` registered an emission maximum (in ClCCl) of 741 nm.
Consider `N#Cc1c(N2CCCCC2)cc(-c2ccc3ccccc3c2)c2c1-c1ccccc1C2`, for which the emission maximum (in C1CCOC1) is listed as 462 nm.
In turn, `CC1(C)C(/C=C/C2=C(Cl)C(=C/C=C3/N(Cc4ccc(C(=O)O)cc4)c4ccccc4C3(C)C)/CCC2)=[N+](Cc2ccc(C(=O)O)cc2)c2ccccc21` yielded an emission maximum (in CO) of 814 nm.
For the molecule `O=Cc1ccc(C2=C3C=c4c(oc5ccccc45)=[N+]3[B-](F)(F)n3c2cc2c4ccccc4oc23)cc1`, the emission maximum (in C1CCCCC1) turned out to be 612 nm; the emission maximum (in C1CCOC1) was 615 nm; the emission maximum (in CC#N) amounted to 611 nm; the emission maximum (in CCOC(C)=O) is given as 610 nm; the emission maximum (in CN(C)C=O) is 615.5 nm; the emission maximum (in CO) turned out to be 609.5 nm. In addition, the emission maximum runs as follows: (in Cc1ccccc1) 620.5 nm; (in ClCCl) 618.5 nm.
Consider `CC(C)(C)NC(=O)c1ccc2ccc3cccc4c3c2c1c1c2ccccc2c2ccccc2c41`, for which the emission maximum (in ClCCl) is listed as 425 nm.
As for `CC1=[N+]2C(=C(c3ccc(C#N)cc3)c3ccc(C)n3[B-]2(F)F)C=C1`, the emission maximum is given as 539 nm (in C1CCCCC1); 540 nm (in C1CCOC1); 537 nm (in CC#N); 537 nm (in CCOC(C)=O); 538 nm (in CO); 543 nm (in Cc1ccccc1). The molecule further showed an emission maximum (in ClC(Cl)Cl) of 543 nm.
For the setting “in ClC(Cl)Cl”, `Cc1cc(C)c(C2=C3C=CC(c4ccccc4O)=[N+]3[B-]3(c4ccccc4)Oc4ccccc4-c4ccc2n43)c(C)c1` (stereo not given) gave an emission maximum of 614 nm.
Consider `c1ccc(-c2c3ccc(=[N+]4CCCCC4)cc-3oc3cc(N4CCCCC4)ccc23)cc1`, for which the emission maximum was 588 nm (in CCO) and 585 nm (in ClCCl).
In the case of `N#Cc1c(N2CCCC2)cc(-c2ccccc2)c2c1-c1cccc3cccc-2c13`, the emission maximum (in O) came to 550 nm.
For the molecule `CCCCCCc1cc(B(c2c(C)cc(C)cc2C)c2c(C)cc(C)cc2C)c(-c2sc(CCCCCC)cc2P(=O)(c2ccccc2)c2ccccc2)s1`, the emission maximum (in CO) came out at 605 nm.
Consider `COc1ccc2c(c1)CCC1=C(C#Cc3ccc(Cl)cc3)O[B-](F)(F)[O+]=C12`, for which the emission maximum (in ClCCl) came to 472 nm.
In turn, `CCCCC(CC)CN1C(=O)c2cc(Oc3ccc(OC)cc3)c3c4c(Oc5ccc(C(C)(C)C)cc5)cc5c6c(cc(Oc7ccc(C(C)(C)C)cc7)c(c7c(Oc8ccc(OC)cc8)cc(c2c37)C1=O)c64)C(=O)N(c1c(C(C)C)cccc1C(C)C)C5=O` (stereo not given) showed an emission maximum (in Cc1ccccc1) of 608 nm.
Regarding `c1ccc2c(-c3ccc4sc5ccc(-c6c7ccccc7cc7ccccc67)cc5c4c3)c3ccccc3cc2c1`, the emission maximum is, setting by setting: (in C1CCCCC1) 399.14 nm; (in CC#N) 402.78 nm; (in ClCCl) 408.25 nm.
`COCCC1(CCOC)c2cc(-c3ccc(OC)cc3)ccc2-c2ccc(-c3ccc(OC)cc3)cc21` came in with an emission maximum (in C1CCCCC1) of 371 nm.
Take `CCCCN(CCCC)c1ccc(/C=C/c2ccc3nc(/C=C/c4nc5ccc(/C=C/c6ccc(N(CCCC)CCCC)cc6)cc5n(CCC)c4=O)c(=O)n(CCC)c3c2)cc1`: the emission maximum runs as follows: (in C1COCCO1) 630 nm; (in ClCCl) 736 nm.
Consider `Cc1cc2ccccc2c2[nH]c3ccccc3c12`, for which the emission maximum (in ClCCl) is 360 nm.
Molecule `C[SiH]1c2ccccc2-c2cc3c(cc21)-c1ccccc1[SiH]3C` (stereo not given) showed an emission maximum (in ClCCl) of 389 nm.
Regarding `c1ccc2cc(-c3cc(-c4nccs4)nc(-c4nccs4)c3)ccc2c1`, the emission maximum reads like this: (in CC#N) 385 nm; (in CCCCCC) 361 nm; (in CO) 392 nm; (in ClC(Cl)Cl) 372 nm.
With `CCCCN1C(=O)c2c(Br)c(Br)c3c4c(Br)c(Br)c5c6c(c(Br)c(Br)c(c7c(Br)c(Br)c(c2c37)C1=O)c64)C(=O)N(CCCC)C5=O`, the emission maximum (in ClC(Cl)Cl) worked out at 600 nm.
In turn, `c1ccc(-n2c(-c3ccccc3-n3c4ccccc4c4ccccc43)nc3ccccc32)cc1` displayed an emission maximum (in C1CCOC1) of 396 nm.
As to `COc1ccccc1-c1nc2c3ccccc3c3ccccc3c2n1-c1ccc(C)cc1`, the emission maximum (in Cc1ccccc1) is on record as 371 nm.
With `CCN(CC)c1ccc2c(-c3ccccc3C(=O)O)c3c([o+]c2c1)/C(=C/C=C/c1ccc(N(C)C)cc1)CCC3`, the emission maximum (in ClCCl) is on record as 857 nm.
In the case of `CC(C)(C)c1ccc2c(c1)c1cc(C(C)(C)C)ccc1n2-c1ccc(S(=O)(=O)c2ccc(-n3c4ccc(C(C)(C)C)cc4c4cc(C(C)(C)C)ccc43)cc2)cc1`, the emission maximum (in Cc1ccccc1) turned out to be 404 nm and the emission maximum (in O=P(c1ccccc1)(c1ccccc1)c1ccccc1Oc1ccccc1P(=O)(c1ccccc1)c1ccccc1) was 423 nm.
Where the note is “in C1COCCO1”, `CC(C)(C)c1cc(-c2ccc(-c3cc(C(C)(C)C)cc(C(C)(C)C)c3)cc2)cc(C(C)(C)C)c1` gave an emission maximum of 349 nm.

Source of the values: the Deep4Chem optical property database.
